What was measured:
Format in all cases: cell-based, human
[1] = system: T cell lines primed in vitro to Der p II; test: secondary proliferation of Der p II-primed T cell lines (Examples VIII, X, XI); conditions: for T cell reactivity: overlapping Der p II peptides, 26 positive experiments, FIG. 9; for T cell response: patient 348, native Der p II primed, data not shown
Method: Experiments similar to those of Example V were performed to determine the T cell-reactive areas of the Der p II protein. For example, PBMC from house dust mite-allergic patient 348 were isolated as described in Example V and were stimulated in vitro with 20 μg/ml purified native Der p II.
The above procedure was followed with a number of patients except in individual cases, T cell lines were primed with recombinant Der p II at 20 μg/ml or at 3 μg/ml and x-irradiated (3500 Rads) autologous PBMC were used as antigen-presenting cells. The data was analyzed as described in Example V, except the ranked sum of peptide responses was analyzed assigning a value of 3, 2 or 1 to the three highest S.I. responses.
A study similar to that described in Example VII was carried out to determine the T cell cross-reactivity of the Der p II and Der f II proteins. T cells primed with the Der f II protein were challenged with various Der f II peptides and a set of substantially matching Der p II peptides.
Another experiment following the procedure described in Example VIII analyzed the response of 29 patients primed in vitro to the Der p II protein and challenged with selected peptides derived from the Der p II sequence.

[2] = system: T cell lines primed in vitro to Der p I; test: secondary proliferation of Der p I-primed T cell lines (Examples V, VII, XI); conditions: for T cell response to selected Der f I peptides / T cell response to Der f I peptides: Der p I primed; for T cell response to selected Der f I peptides: 30 positive experiments, FIG. 15a; for T cell response to Der f I peptides: 14 positive experiments, FIG. 7; for T cell response to selected Der p I peptides: FIG. 13; for positivity index (P.I.): mean S.I. × percent responders, 33 patients
Method: 10^7 PBMC from individual 543 were cultured in 10 ml RPMI-1640 containing 5% pooled human AB serum and supplemented with glutamine, penicillin, streptomycin and HEPES buffer in the presence of 20 μg/ml purified native Der p I/ml at 37° C. for 7 days. Viable cells were then purified by Ficoll-Hypaque centrifugation and cultured for 2 additional weeks in RPMI-1640/5% AB serum containing 5 units recombinant human IL-2/ml and 5 units recombinant human IL-4/ml. The resting T cells were then tested in a secondary proliferation assay to assess T cell responses to various house dust mite proteins and peptides. For assay, 2×10^4 resting T cells were cultured in 200 μl of RPMI-1640/5% AB serum for 3 days at 37° C. in the presence of 2×10^4 autologous Epstein-Barr virus transformed B cells (20,000 Rads) as antigen presenting cells with various concentrations of purified native Der p I or synthetic Der p I peptides. Each well then received 1 μCi tritiated thymidine for 16 hours. The counts incorporated were collected onto glass fiber filters and processed for liquid scintillation counting. Medium alone, acting as negative control, contained no allergen or peptide. The results of this experiment indicate that this particular patient responds with an S.I. of at least 2.0 to several peptides derived from the Der p I protein, including DP I-1, DP I-2, DP I-4, DP I-11, DP I-5, DP I-13, DP I-15, DP I-6.1, DP I-8, DP I-9, DP I-16, DP I-10 and DP I-17 (data not shown).
The above procedure was followed with a number of other house dust mite allergic individuals except a) in individual cases, the length of time of cultivation with IL-2 and IL-4 varied; b) in individual cases, the T cells were primed with either purified native (N) or recombinant (R) Der p I protein at either 20 μg/ml or 10 μg/ml; and c) in individual cases, x-irradiated (3500 Rads) autologous PBMC were used as antigen presenting cells in the secondary proliferation assay.
Individual results were considered positive and used if the individual responded to the Der p I protein and at least one peptide derived from Der p I at an S.I. of 2.0 or greater. The resting T cell lines primed with recombinant or native Der p I-stimulated PBMC were tested for reactivity to synthetic Der p I peptides. The maximum response for each peptide in a titration of the antigen is expressed as the T cell stimulation index (S.I.). The S.I. is the counts-per-minute (CPM) incorporated by cells in response to the peptide divided by the CPM incorporated by cells in medium only. […] However, only individual S.I. values greater than or equal to 2.0 (a response two-fold or greater over background), referred to herein as "positive" results, were used in calculating mean T cell stimulation indices for each peptide for the patient or group of patients tested. […] The T cell stimulation index is calculated by: [formula]
The bar represents the cumulative rank of the peptide response in the group of patients. To determine the cumulative rank, the 5 peptides with the highest S.I. in each individual were determined and assigned a numerical rank in descending order, with 5 representing the strongest response. The ranks for each peptide were then summed in the group of patients to determine the cumulative rank for the peptide. […] Given the percent positive and the mean T cell stimulation index, the positivity index (P.I.) for each peptide can be calculated.
The Der p I and Der f I proteins are very homologous (81% identity). Thus, experiments, similar to those of Example V, were carried out to determine the T cell responses of Der p I primed T cell lines when challenged with various Der p I peptides and substantially matching […].
The results of T cell studies using selected peptides derived from the Der p I, the Der f I, the Der p II and the Der f II proteins are shown in FIGS. 13-18a-d. […]

[3] = system: T cell lines primed in vitro to Der f I; test: secondary proliferation of Der f I-primed T cell lines (Examples VI, VII, XI); conditions: for T cell reactivity: overlapping Der f I peptides, 16 positive experiments, FIG. 6; for T cell response: patient 783, recombinant Der f I primed, data not shown; for stimulation index, rank in group: 9 patients, FIG. 16a / 16b
Method: Experiments similar to those of Example V were performed to determine. the T cell-reactive areas of the Der f I protein. For example, PBMC from house dust mite-allergic patient 783 were isolated as described in Example V and were stimulated in vitro-- with recombinant purified Der f I at 20 μg/ml. The results of the proliferation assay with Der f I peptides using x-irradiated (3500 Rads) autologous PBMC as antigen presenting cells indicate that T cells from this patient respond to the peptides DF I-8.1, DF I-9, DF I-6, DF I-10, DF I-2.1, DF I-3, DF I-11, DF I-5, DF I-1, and DF I-17 (data not shown).
The above procedure was followed in a number of patients except in individual cases, T cell lines were primed with affinity purified Der f I at 20 μg/ml or at 10 μg/ml and x-irradiated (25,000 Rads) autologous Epstein-Barr virus transformed B cells were used as antigen presenting cells. […]
Similarly, the procedure described in Example VI was followed with T cell lines from 9 patients primed in vitro to the Der f I protein then analyzed for response to selected peptides derived from the protein. The data was analyzed as described in Example VI. […]

DP II-20.6: Der p II peptide (DQVDVKDSANHEIKKVLVPGSHGSEP)
ranked sum of peptide responses ([1]; 30 patients, FIG. 17b): highest ranked sum

DF I-26.1: Der f I peptide (IIGIKDLRAFQHYDGRTIIQHDNGYQ)
T cell response to selected Der f I peptides [2]: respond significantly

DP II-2: Der p II peptide (HEIKKVLVPGCHGSEPCIIHRGKPF)
T cell reactivity [1]: significant T cell reactivity | T cell response [1]: responds well

DF I-3: Der f I peptide (TVTPIRMQGGCGSCWAFSGVAATESAYLA)
T cell response to Der f I peptides [2]: respond significantly | T cell reactivity [3]: significant areas of T cell reactivity | T cell response [3]: respond

DF I-25.1: Der f I peptide (QIYPPDVKQIREALTQTHTAIAVIIGIKD)
T cell response to selected Der f I peptides [2]: respond significantly | stimulation index, rank in group [3]: highest stimulation indexes

DP II-8: Der p II peptide (DIKYTWNVPKIAPKSENVVVTVKVMG)
T cell reactivity [1]: significant T cell reactivity | T cell response [1]: responds well

DP I-22.1: Der p I peptide (AFSGVAATESAYLAHRNQSLDLAEQELVD)
T cell response to selected Der p I peptides ([2]; 33 positive experiments): respond significantly

DF I-11: Der f I peptide (YRNTSLDLSEQELVDCASQHGC)
T cell response to Der f I peptides [2]: respond significantly | T cell reactivity [3]: significant areas of T cell reactivity | T cell response [3]: respond

DP I-25.2: Der p I peptide (QIYPPNANKIREALAQTHSAIA)
T cell response to selected Der p I peptides ([2]; 33 positive experiments): respond significantly | positivity index (P.I.) [2]: at least 150

DF I-5: Der f I peptide (GDTIPRGIEYIQQNGVVEERSYPYVARE)
T cell reactivity [3]: significant areas of T cell reactivity | T cell response [3]: respond

DF I-14: Der f I peptide (QRCRRPNSQHYGISNYCQI)
T cell reactivity [3]: significant areas of T cell reactivity

DF I-2.1: Der f I peptide (ELDLRSLRTVTPIRMQGGCGSCWAFSG)
T cell response [3]: respond

DF I-4: Der f I peptide (VAATESAYLAYRNTSLDLSEQ)
T cell response to Der f I peptides [2]: respond significantly | T cell reactivity [3]: significant areas of T cell reactivity

DF I-6: Der f I peptide (YPPDVKQIREALFQTHTAIAVIIG)
T cell response to Der f I peptides [2]: respond significantly | T cell reactivity [3]: significant areas of T cell reactivity | T cell response [3]: respond

DF I-8.1: Der f I peptide (IKDLRAFQHYDGRTIIQHDNGYQPNY)
T cell reactivity [3]: significant areas of T cell reactivity | T cell response [3]: respond

DF I-12: Der f I peptide (ELVDCASQHGCHGDTIPRGIE)
T cell response to Der f I peptides [2]: respond significantly

DF I-17: Der f I peptide (GDSGYGYFQAGNNLMMIEQYPYVVIM)
T cell response [3]: respond

DF I-22.1: Der f I peptide (AFSGVAATESAYLAYRNTSLDLSEQELVD)
stimulation index, rank in group [3]: highest stimulation indexes

DF I-23.2: Der f I peptide (DTIPRGIEYIQQNGVVEERSYPYVAREQR)
T cell response to selected Der f I peptides [2]: respond significantly

DP I-5: Der p I peptide (GDTIPRGIEYIQHNGVVQESYYRYVARE)
T cell reactivity ([2]; overlapping Der p I peptides, 33 positive experiments): significant regions of T cell reactivity | T cell response to Der p I peptides ([3]; Der f I primed, 8 positive experiments, FIG. 8): respond significantly

DF I-10: Der f I peptide (QGDDYWIVRNSWDTTWGDSGYGYF)
T cell response [3]: respond

DF I-21.2: Der f I peptide (RINSVNVPSELDLRSLRTVTPIRMQ)
T cell response to selected Der f I peptides [2]: respond significantly

DF I-7: Der f I peptide (TQTHTAIAVIIGIKDLRAFQHYDGRT)
T cell reactivity [3]: significant areas of T cell reactivity

DF I-1: Der f I peptide, amino acid residues 1-20 (TSACRINSVNVPSELDLRSLR)
T cell response to Der f I peptides [2]: respond significantly | T cell reactivity [3]: significant areas of T cell reactivity | T cell response [3]: respond

DF I-15: Der f I peptide (HYGISNYCQIYPPDVKQIREAL)
T cell response to Der f I peptides [2]: respond significantly

DF I-27.1: Der f I peptide (HDNGYQPNYHAVNIVGYGSTQGDDY)
T cell response to selected Der f I peptides [2]: respond significantly

DP I-23.2: Der p I peptide (DTIPRGIEYIQHNGVVQESYYRYVAREQS)
T cell response to selected Der p I peptides ([2]; 33 positive experiments): respond significantly | positivity index (P.I.) [2]: at least 150

DF I-21.1: Der f I peptide (TSACRINSVNVPSELDLRSLRTVTPIRMQ)
T cell response to selected Der f I peptides [2]: respond significantly

DF I-23.1: Der f I peptide (EYIQQNGVVEERSYPYVAREQRCRRPNSQ)
T cell response to selected Der f I peptides [2]: respond significantly

DP I-28.1: Der p I peptide (NIVGYSNAQGVDYWIVRNSWDTNWGDNGY)
T cell response to selected Der p I peptides ([2]; 33 positive experiments): respond significantly

Source: US5968526A, “T cell epitopes of the major allergens from Dermatophagoides (house dust mite)” (Immulogic Pharamaceutical Corporation, priority 1995, dated 1999)
